Reference: US20220064196A1, “EGFR Inhibitors, Compositions and Methods Thereof” (Betta Pharmaceuticals Co., Ltd., priority 2019, published 2022)
Read-outs that look alike come from different tables or passages of the source.

Experiments:
[1] = target: EGFR Del19/T790M/C797S (Homo sapiens, UniProt P00533, T790M/C797S, form not given); assay: Kinase assay (mobility shift), EGFR Del19/T790M/C797S; type: biochemical
Procedure: (§1) Test 1 Kinase Assay for EGFR Del19/T790M/C797S and EGFR Wildtype
(§2) Enzyme reaction protocol are as follows:
(§3) 1. Preparing 1* Kinase buffer as followed.
(§4) 2. Preparing Compound Concentration Gradient: Compounds were tested at a concentration of 300 nM, diluted to 100-fold final concentration in 100% DMSO solution in 96-well plates, and compounds were diluted 3 times with Precision, 10 concentrations. Each concentration of the compound was then further diluted to a 5-fold final concentration of the intermediate dilution solution using 1* Kinase buffer.
(§5) 3.5 μL of each of the prepared intermediate dilution compounds was separately added to the compound wells of the 384-well plate, and each concentration was tested for duplicate wells; 5 μL of 5% DMSO was added to the negative control wells and the positive control wells, respectively.
(§6) 4. 2.5-fold final concentration of the kinase solution was prepared using 1*Kinase buffer.
(§7) 5. Add 10 μL of 2.5-fold final concentration of kinase solution to the compound well and positive control well; add 10 μL of 1*Kinase buffer to the negative control well.
(§8) 6. Centrifuge at 1000 rpm for 30 seconds, shake the reaction plate and incubate for 10 minutes at room temperature.
(§9) 7. A mixed solution of 2.5 times the final concentration of ATP and Kinase substrate (5-FAM-EEPLYWSFPAKKK-CONH2) was prepared using 1*Kinase buffer.
(§10) 8. 10 μL of a 2.5-fold final concentration of a mixed solution of ATP and a substrate was added to initiate the reaction.
(§11) 9. Centrifuge the 384-well plate at 1000 rpm for 30 seconds, mix by shaking, and incubate at room temperature for the corresponding time.
(§12) 10. Add 30 μL of the stop solution to stop the kinase reaction, centrifuge at 1000 rpm for 30 seconds, and mix by shaking.
(§13) 11. Read the conversion rate with Caliper EZ Reader.
(§14) Convert conversion values to inhibition values:
(§15) Percent inhibition 32 (max-conversion)/(max-min)*100.
(§16) “max” stands for the mean value of the positive control well ratio; “min” stands for the mean value of the negative control well.
(§17) Fit the data in log(inhibitor) vs. response Variable slope of GraphPad Prism 5 to obtain IC50 values.
(§18) Equation used is: Y=Bottom+(Top-Bottom)/(1+(IC50/X)^HillSlope)

[2] = target: Ba/F3-Del19/T790M/C797S (Homo sapiens, UniProt P00533, T790M/C797S, cells depend on it, form not given); assay: Ba/F3-Del19/T790M/C797S cells proliferation assay (CellTiter Glo); type: cell-based; settings: cell proliferation, 72 h, read-out: Ba/F3-Del19/T790M/C797S IC50
Procedure: (§19) a) The medium was preheated in a 37°0 C. water bath in advance.
(§20) b) Remove the cryogenic vials from the liquid nitrogen tank, quickly put it into a 37° C. water bath, and completely melt it in 1 min.
(§21) c) Transfer the cell suspension to a 15 mL centrifuge tube containing 8 mL medium, centrifuge 1000 rpm, 5 min.
(§22) d) Discard the supernatant, resuspend the cells in 1 mL medium, and transfer to a 75 cm^2 flask containing 15 mL medium, culture the cells in an incubator at 37° C., 5% CO2.
(§23) a) The medium was preheated in a 37° C. water bath in advance.
(§24) b) Collect cell to a 15 mL centrifuged tube, centrifuge at 1000 rpm for 5 min. Discard the supernatant, count, and make the cell density at 1×10^4 cells/mL, then place it in a 37° C., 5% CO2 incubator.
(§25) a) The test compound (20 mM stock solution) was diluted to 200uM with 100% DMSO as starting concentration then 3-fold serial diluted with “9+0” concentrations. in a 96-well dilution plate (Cat # P-05525, Labcyte);
(§26) b) The above compound solution was diluted 1:20 times with culture medium to prepare a 10 fold working solution;
(§27) a) Take cells in log phase growth, centrifuge at 1000 rpm for 5 min, then resuspend the cells with culture medium, then count cells;
(§28) b) Cells were seeded to 96-well cell culture plate with density at 2000 cells/well;
(§29) a) Compounds prepared at step 2 were added to cell plate with 15 μL per well, the final concentrations were 1000,333, 111.1, 37,12.3, 4.1, 1.4, 0.5, 0.2 and 0 nM, and the final concentration of DMSO was 0.5%. The blank control well was a culture medium (0.5% DMSO);
(§30) b) The cells were incubated for an additional 72 h in the incubator.
(§31) a) Remove the 96-well cell culture plate and add 50 μl of CTG reagent (CellTiter Glo kit, promega, Cat # G7573).
(§32) b) Plate was shaked for 2 min and then let it cool for 10 min at room temperature.
(§33) c) The Luminescence signal value was read using a PerkinElmer reader. Experimental data analysis
(§34) Data were analyzed using GraphPad Prism 6.0 software to obtain a fitted curve of compound activity.
(§35) Fit the Compound IC50 from non-linear regression equation:
(§36) Y=Bottom+(Top-Bottom)/(1+10((LogIC50-X)×Hill Slope));
(§37) X: The log of the concentration of the compound; Y: Luminescence value.
(§38) The cells proliferation assay results are expressed with IC50, shown as Table 2.

[3] = target: Ba/F3-L858R/T790M/C797S (Homo sapiens, UniProt P00533, T790M/C797S/L858R, cells depend on it); assay: Ba/F3-L858R/T790M/C797S cells proliferation assay (CellTiter Glo); type: cell-based; settings: cell proliferation, 72 h, read-out: Ba/F3-L858R/T790M/C797S IC50
Procedure: as §19, §20, §21, §22, §23, §24, §25, §26, §27, §28, §29, §30, §31, §32, §33, §34, §35, §36, §37, §38

[4] = tested on: A431 (WT); assay: A431 cells proliferation assay (CellTiter Glo); type: cell-based; settings: Homo sapiens, A-431; cell proliferation, 72 h
Procedure: Test 4 A431 Cells Proliferation Assay
DMEM and 10% FBS and 1% PS.
as §23, §20, §21, §22, §24
a) The test compound (20 mM stock solution) was diluted to 2 mM with 100% DMSO as starting concentration then 3-fold serial diluted with “9+0” concentrations. in a 96-well dilution plate (Cat # P-05525, Labcyte);
b) The above compound solution was diluted 1:40 times with culture medium to prepare a 5 fold working solution;
as §27
b) Cells were seeded to 96-well cell culture plate with density at 5000 cells/well;
a) Compounds prepared at step 2 were added to cell plate with 40 μL per well, the final concentrations were 10000, 3333,1111.1, 370.4, 123.5, 41.2, 13.7, 4.6, 1.5 and 0 nM, and the final concentration of DMSO was 0.5%. The blank control well was a culture medium (0.5% DMSO);
as §30
a) Remove the 96-well cell culture plate and add 60 μl of CTG reagent (CellTiter Glo kit, promega, Cat # G7573).
as §32
c) The Luminescence signal value was read using a PerkinElmer reader.
Experimental Data Analysis
as §34, §35
Y=Bottom+(Top-Bottom)/(1+10((LogIC50-X)×HillSlope));
as §37
The cells proliferation assay results are expressed with IC50, shown as Table 3.

[5] = target: EGFR L858R/T790M/C797S (Homo sapiens, UniProt P00533, C797S/L858R/T790M); assay: Kinase assay (mobility shift), EGFR L858R/T790M/C797S; type: biochemical
Procedure: [Worded in the source for another variant; this variant is reported under the same test.] as §1, §2, §3, §4, §5, §6, §7, §8, §9, §10, §11, §12, §13, §14, §15, §16, §17, §18

[6] = target: EGFR WT (Homo sapiens, UniProt P00533); assay: Kinase assay (mobility shift), EGFR wildtype; type: biochemical; settings: top concentration 300 nM
Procedure: as §1, §2, §3, §4, §5, §6, §7, §8, §9, §10, §11, §12, §13, §14, §15, §16, §17, §18

Sequence of EGFR WT (P00533 25-1210): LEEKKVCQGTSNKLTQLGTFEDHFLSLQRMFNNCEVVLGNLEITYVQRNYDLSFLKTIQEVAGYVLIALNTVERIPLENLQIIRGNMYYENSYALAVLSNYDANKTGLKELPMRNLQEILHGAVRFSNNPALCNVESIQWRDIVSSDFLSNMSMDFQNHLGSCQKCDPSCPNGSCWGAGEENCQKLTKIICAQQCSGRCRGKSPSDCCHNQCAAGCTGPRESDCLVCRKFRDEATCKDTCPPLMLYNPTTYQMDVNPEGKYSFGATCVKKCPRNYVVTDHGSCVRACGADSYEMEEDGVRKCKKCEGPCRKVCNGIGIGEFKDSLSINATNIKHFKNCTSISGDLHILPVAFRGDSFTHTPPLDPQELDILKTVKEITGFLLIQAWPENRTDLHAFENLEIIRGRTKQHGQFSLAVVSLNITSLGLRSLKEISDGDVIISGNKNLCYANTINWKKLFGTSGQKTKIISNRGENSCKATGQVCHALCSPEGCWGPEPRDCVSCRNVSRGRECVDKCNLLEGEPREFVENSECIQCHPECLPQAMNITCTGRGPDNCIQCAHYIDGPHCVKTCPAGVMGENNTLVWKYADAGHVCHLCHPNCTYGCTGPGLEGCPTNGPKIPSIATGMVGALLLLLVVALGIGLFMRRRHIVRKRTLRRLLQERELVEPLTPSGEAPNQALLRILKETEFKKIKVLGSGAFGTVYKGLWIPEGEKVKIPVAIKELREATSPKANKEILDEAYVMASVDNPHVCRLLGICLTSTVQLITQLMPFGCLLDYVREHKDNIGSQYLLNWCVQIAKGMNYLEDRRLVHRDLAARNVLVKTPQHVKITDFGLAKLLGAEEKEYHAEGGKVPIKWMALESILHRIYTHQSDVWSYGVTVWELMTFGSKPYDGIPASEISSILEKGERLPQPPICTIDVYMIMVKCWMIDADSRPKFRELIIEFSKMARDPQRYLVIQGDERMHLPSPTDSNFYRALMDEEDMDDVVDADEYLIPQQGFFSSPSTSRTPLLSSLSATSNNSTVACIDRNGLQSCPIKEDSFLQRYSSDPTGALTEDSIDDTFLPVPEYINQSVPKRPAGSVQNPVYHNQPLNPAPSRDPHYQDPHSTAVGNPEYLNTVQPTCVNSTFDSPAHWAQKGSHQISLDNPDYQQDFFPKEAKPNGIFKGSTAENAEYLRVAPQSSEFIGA
Sequence of EGFR L858R/T790M/C797S (P00533 25-1210 T790M/C797S/L858R): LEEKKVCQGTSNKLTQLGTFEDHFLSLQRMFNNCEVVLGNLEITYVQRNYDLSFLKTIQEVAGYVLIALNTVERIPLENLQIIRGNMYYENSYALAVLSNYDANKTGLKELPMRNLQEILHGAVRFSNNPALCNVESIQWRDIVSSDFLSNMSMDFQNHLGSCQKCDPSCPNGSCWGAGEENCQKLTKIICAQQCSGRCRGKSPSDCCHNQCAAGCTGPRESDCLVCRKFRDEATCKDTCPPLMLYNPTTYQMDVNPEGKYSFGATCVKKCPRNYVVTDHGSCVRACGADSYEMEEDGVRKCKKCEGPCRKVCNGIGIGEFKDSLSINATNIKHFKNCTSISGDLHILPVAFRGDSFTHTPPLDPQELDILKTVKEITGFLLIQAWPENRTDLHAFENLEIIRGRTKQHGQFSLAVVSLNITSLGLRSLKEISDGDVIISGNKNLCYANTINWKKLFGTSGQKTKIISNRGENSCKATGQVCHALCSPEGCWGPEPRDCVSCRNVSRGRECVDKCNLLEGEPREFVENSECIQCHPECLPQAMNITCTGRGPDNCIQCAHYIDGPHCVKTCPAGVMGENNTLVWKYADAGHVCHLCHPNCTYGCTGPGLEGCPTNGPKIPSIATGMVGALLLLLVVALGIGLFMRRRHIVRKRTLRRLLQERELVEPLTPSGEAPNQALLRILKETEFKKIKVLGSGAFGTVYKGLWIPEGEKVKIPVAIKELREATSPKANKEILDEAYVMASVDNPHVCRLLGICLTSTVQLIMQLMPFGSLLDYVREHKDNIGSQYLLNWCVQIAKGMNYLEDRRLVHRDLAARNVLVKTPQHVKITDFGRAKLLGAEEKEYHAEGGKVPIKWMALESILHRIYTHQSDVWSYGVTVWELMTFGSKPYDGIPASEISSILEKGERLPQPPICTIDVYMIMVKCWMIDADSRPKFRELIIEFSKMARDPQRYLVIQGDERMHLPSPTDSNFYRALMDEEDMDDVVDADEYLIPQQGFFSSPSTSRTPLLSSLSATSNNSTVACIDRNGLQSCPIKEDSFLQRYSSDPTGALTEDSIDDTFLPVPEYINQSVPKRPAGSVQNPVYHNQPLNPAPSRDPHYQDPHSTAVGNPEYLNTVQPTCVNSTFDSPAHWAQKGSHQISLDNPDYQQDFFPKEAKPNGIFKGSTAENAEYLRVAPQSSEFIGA
Sequence of EGFR Del19/T790M/C797S (P00533 with tags, fused parts or gaps DEL746-750/T790M/C797S, form open): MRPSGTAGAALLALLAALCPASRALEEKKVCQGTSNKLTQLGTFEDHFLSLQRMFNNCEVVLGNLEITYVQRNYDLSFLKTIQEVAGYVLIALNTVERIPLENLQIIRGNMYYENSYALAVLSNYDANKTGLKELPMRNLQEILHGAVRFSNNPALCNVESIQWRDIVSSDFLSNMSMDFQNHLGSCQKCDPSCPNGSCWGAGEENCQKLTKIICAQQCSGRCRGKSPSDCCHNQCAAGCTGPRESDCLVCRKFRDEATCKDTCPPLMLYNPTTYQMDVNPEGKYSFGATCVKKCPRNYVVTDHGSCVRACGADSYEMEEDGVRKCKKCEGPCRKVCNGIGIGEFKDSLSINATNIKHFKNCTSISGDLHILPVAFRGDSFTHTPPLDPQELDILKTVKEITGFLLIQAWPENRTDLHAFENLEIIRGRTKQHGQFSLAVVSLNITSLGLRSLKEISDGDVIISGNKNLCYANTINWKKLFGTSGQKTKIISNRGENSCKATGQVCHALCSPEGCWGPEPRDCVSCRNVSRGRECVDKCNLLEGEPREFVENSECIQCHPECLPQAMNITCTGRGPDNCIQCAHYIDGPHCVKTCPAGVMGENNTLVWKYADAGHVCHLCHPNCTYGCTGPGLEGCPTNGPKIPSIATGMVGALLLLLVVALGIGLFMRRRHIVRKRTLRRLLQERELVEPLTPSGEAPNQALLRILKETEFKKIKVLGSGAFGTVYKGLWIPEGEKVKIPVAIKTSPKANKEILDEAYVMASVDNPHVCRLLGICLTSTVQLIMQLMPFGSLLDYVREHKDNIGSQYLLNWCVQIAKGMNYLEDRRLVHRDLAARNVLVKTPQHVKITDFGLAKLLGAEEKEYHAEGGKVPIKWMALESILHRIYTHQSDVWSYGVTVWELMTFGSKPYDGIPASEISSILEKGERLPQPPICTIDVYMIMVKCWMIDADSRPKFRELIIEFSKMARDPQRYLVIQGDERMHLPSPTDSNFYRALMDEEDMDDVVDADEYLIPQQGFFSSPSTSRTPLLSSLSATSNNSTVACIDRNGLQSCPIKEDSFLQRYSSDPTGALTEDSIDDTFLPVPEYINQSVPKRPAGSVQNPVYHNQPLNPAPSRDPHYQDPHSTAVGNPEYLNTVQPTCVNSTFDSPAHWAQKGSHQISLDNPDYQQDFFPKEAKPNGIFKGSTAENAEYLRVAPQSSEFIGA
Sequence of Ba/F3-Del19/T790M/C797S (P00533 with tags, fused parts or gaps DEL746-750/T790M/C797S, form open): as above

| Compound | IC50 [1] [nM] | GI50 ([2]; numeric values) [nM] | GI50 ([3]; class symbols) [nM] | IC50 [4] [nM] | GI50 ([2]; class symbols) [nM] | IC50 ([5]; numeric values) [nM] | IC50 [6] [nM] | IC50 ([5]; class symbols) [nM] | GI50 ([3]; numeric values) [nM] |
| --- | --- | --- | --- | --- | --- | --- | --- | --- | --- |
| CP(C)(=O)c1ccccc1Nc1nc(Nc2ccc(N3CC4(CCC(NCCO)CC4)C3)c(Cl)c2)ncc1Cl [Example 12, (2-((5-chloro-2-((3-chloro-4-(7-((2-hydroxyethyl)amino)-2-azaspiro[3.5]nonan-2-yl)phenyl)amino)pyrimidin-4-yl)amino)phenyl)dimethylphosphine oxide] | 1 | 24.4 | 10 to 50 | 121 | – | – | – | – | – |
| CN(C)C1CC2(CCN(c3ccc(Nc4ncc(Cl)c(Nc5ccccc5P(C)(C)=O)n4)cc3)CC2)C1 [Example 17, (2-((5-chloro-2-((4-(2-(dimethylamino)-7-azaspiro[3.5]nonan-7-yl)phenyl)amino)pyrimidin-4-yl)amino)phenyl)dimethylphosphine oxide] | 0.7 | – | ≤ 10 | 35 | ≤ 10 | – | – | – | – |
| CN(C)C1CC2(CCN(c3ccc(Nc4ncc(Cl)c(Nc5ccccc5P(C)(C)=O)n4)cc3C(F)(F)F)CC2)C1 [Example 19, (2-((5-chloro-2-((4-(2-(dimethylamino)-7-azaspiro[3.5]nonan-7-yl)-3-(trifluoromethyl)phenyl)amino)pyrimidin-4-yl)amino)phenyl)dimethylphosphine oxide] | – | – | 10 to 50 | 349 | 10 to 50 | 4.5 | > 300 | – | – |
| Cc1cc(Nc2nc(Nc3ccccc3P(C)(C)=O)c3nc[nH]c3n2)ccc1N1CCC2(CC1)CC(N)C2 [Example 21, (2-((2-((4-(2-amino-7-azaspiro[3.5]nonan-7-yl)-3-methylphenyl)amino)-9H-purin-6-yl)amino)phenyl)dimethylphosphine oxide] | – | – | > 50 | 367 | > 50 | 0.9 | 20 | – | – |
| Cc1cc(Nc2ncc(C#N)c(Nc3ccccc3P(C)(C)=O)n2)ccc1N1CCC2(CC1)CC(N)C2 [Example 28, 2-((4-(2-amino-7-azaspiro[3.5]nonan-7-yl)-3-methylphenyl)amino)-4-((2-(dimethylphosphoryl)phenyl)amino)pyrimidine-5-carbonitrile] | – | – | > 50 | – | > 50 | – | > 300 | > 10 | – |
| CP(C)(=O)c1ccccc1Nc1nc(Nc2ccc(N3CCC4(CC3)CC(N)C4)c(F)c2)ncc1Cl [Example 29, (2-((2-((4-(2-amino-7-azaspiro[3.5]nonan-7-yl)-3-fluorophenyl)amino)-5-chloropyrimidin-4-yl)amino)phenyl)dimethylphosphine oxide] | – | 16.9 | – | 95.5 | – | 1.6 | 35 | – | 32.9 |
| CP(C)(=O)c1ccccc1Nc1nc(Nc2ccc(N3CCC4(CC3)CC(NC3CCCC3)C4)c(Cl)c2)ncc1Cl [Example 31, (2-((5-chloro-2-((3-chloro-4-(2-(cyclopentylamino)-7-azaspiro[3.5]nonan-7-yl)phenyl)amino)pyrimidin-4-yl)amino)phenyl)dimethylphosphine oxide] | – | – | 10 to 50 | – | 10 to 50 | 1.6 | 33 | – | – |
| CP(C)(=O)c1ccccc1Nc1nc(Nc2ccc(N3CCC4(CC3)CC(NCCO)C4)c(Cl)c2)ncc1Cl [Example 32, (2-((5-chloro-2-((3-chloro-4-(2-((2-hydroxyethyl)amino)-7-azaspiro[3.5]nonan-7-yl)phenyl)amino)pyrimidin-4-yl)amino)phenyl)dimethylphosphine oxide] | – | – | > 50 | – | > 50 | 3.2 | 65 | – | – |
| CP(C)(=O)c1ccccc1Nc1nc(Nc2ccc(N3CCC4(CC3)CC(N3CCCC3)C4)c(Cl)c2)ncc1Cl [Example 33, (2-((5-chloro-2-((3-chloro-4-(2-(pyrrolidin-1-yl)-7-azaspiro[3.5]nonan-7-yl)phenyl)amino)pyrimidin-4-yl)amino)phenyl)dimethylphosphine oxide] | 0.4 | 9.7 | – | 47 | – | – | – | – | 11.7 |
| CN(C)[C@@H]1CCN(C2CC3(CCN(c4ccc(Nc5ncc(Cl)c(Nc6ccccc6P(C)(C)=O)n5)cc4Cl)CC3)C2)C1 [Example 34, (R)-(2-((5-chloro-2-((3-chloro-4-(2-(3-(dimethylamino)pyrrolidin-1-yl)-7-azaspiro[3.5]nonan-7-yl)phenyl)amino)pyrimidin-4-yl)amino)phenyl)dimethylphosphine oxide] | 0.53 | 14.7 | – | 53 | – | – | – | – | 21.7 |
